In patent US20230190616A1, “COMPOUNDS USEFUL FOR THE TREATMENT AND/OR CARE OF THE SKIN, HAIR, NAILS AND/OR MUCOUS MEMBRANES” (LUBRIZOL ADVANCED MATERIALS, INC., priority 2018, published 2023):

What was measured:
[1] = system: human neuroblastoma cell line (SH-SY5Y); experiment: Inhibition of noradrenaline (NA) release from human neuroblastoma cells, ELISA; format: cell-based; conditions: SH-SY5Y, respect to basal control, mean of 3 assays
Excerpt: Inhibition of noradrenaline release from human neuroblastoma cells.
Release of neurotransmitters by exocytosis in neuromuscular junctions from peripheral neurons to skeletal muscle allows muscle contraction. Face muscles are subject to said contraction and facial muscle contraction is more frequent around eyes, mouth and forehead than elsewhere in the face. With age, continuous release of neurotransmitters into neuromuscular junctions and decrease of elasticity contribute to the increase of facial wrinkles and permanent expression lines. Compounds able to block or decrease exocytosis on neuromuscular junction sites are thus good candidates for the cosmetic treatment of unaesthetic wrinkles. In vitro induction of the neurotransmitter Noradrenaline (NA) release in a human neuroblastoma cell line (SH-SY5Y) is considered a direct and reliable method for exocytosis measurement. The aim of this study is to evaluate the efficacy of the peptides of the invention on the inhibition of neuronal exocytosis by means of measuring the levels of NA release in SH-SY5Y cells by Enzyme-linked Immunosorbent Assay (ELISA).
SH-SY5Y (ECACC) cells are seeded in 12-well plates at a density of 1×10^6 cells/well. After a 6-day culture, medium is removed from wells and cells are treated for 60 minutes with the peptides of the invention dissolved in Hank’s Balanced Salt Solution (HBSS, Life Technologies) at 1 and 2.5 mg/ml. Cells treated with HBSS alone are used as a basal control. To mobilize NA vesicles, supernatants are removed and 100 nM Tetradecanoylphorbol-13-acetate (TPA, Sigma) is dissolved in the presence of test items in HBSS or dissolved in HBSS alone in the case of the basal control. After this, solutions with TPA are removed and NA release is induced by the addition of 10 µM lonomycin (Epica) with 100 nM TPA dissolved in the presence of test items in HBSS or dissolved in HBSS alone in the case of the basal control. Afterwards, the medium in the wells, containing released NA, is collected and centrifuged. Supernatants obtained are used for quantification of NA by ELISA with noradrenalin ELISA kit (IBL International) following manufacturer’s instructions. In brief, direct sandwich ELISA is performed with a plate pre-coated with an anti-NA antibody. The color obtained after substrate addition is directly proportional to the amount of NA present in each condition tested. Absorbance is read in a microplate absorbance reader (Clariostar™, BMG) at 405 nm. The percentage of NA release for each condition is calculated respect to basal control.

[2] = system: collagen type I in primary human dermal fibroblasts (HDFn); experiment: Type I collagen synthesis on human dermal fibroblasts by ELISA; format: cell-based; conditions: 0.5 µg/ml, HDFn; for % Collagen induction: 48 hours, versus non-treated cells, mean of 5 assays
Excerpt: In vitro study of type I collagen synthesis on human dermal fibroblasts by Enzyme-Linked Immunosorbent Assay.
Collagen type I is the principal collagen of skin. This molecule, which is mainly produced by fibroblasts, is responsible for the strength and resiliency of this tissue. For this reason, in vitro quantification of collagen induction by cosmetic products on human dermal fibroblasts provides information about their potential anti-aging effects on the skin. Collagen induction by the peptides of the invention is evaluated with an Enzyme-Linked Immunosorbent Assay (ELISA). The aim of this study is to investigate the ability of a product to induce collagen type I synthesis in primary human dermal fibroblasts isolated from neonatal skin (HDFn).
HDFn (Cascade) are seeded at a density of 5×10^4 in 48-well plates. After 24-hour incubation, fresh medium with scalar dilutions of the test items at 0.5 µg/ml are added. Non-treated cells are used as basal control. The cells are treated for 48 hours. Then, the medium of the wells is collected and transferred into a 96-well plate. A standard calibration curve prepared with calf skin type I collagen (Sigma) is transferred into the plate as well. The plate is left overnight in order to coat type I collagen into its surface. After that, collagen I is detected with an anti-collagen type I antibody (Sigma). The primary antibody is then recognized by a secondary antibody IgG-HRP (molecular probes). 3,3,5,5-tetramethylbenzidine liquid substrate (TMB, Sigma) is added to measure the amount of secondary antibody attached. The color produced by this reaction is measured in a microtiter plate reader (Clariostar™, BMG) and type I collagen concentration is determined using a linear regression of the standard curve.

Substance	% Released NA ([1]; 1 mg/ml)	% Released NA ([1]; 2.5 mg/ml)	% Collagen induction [2]	Efficacy in increasing collagen type I compared with Argireline (in words) [2]
Ac-L-Arg-L-Arg-D-Gln-L-Met-L-Glu-L-Glu-NH2 [PEP-22]	58.9%	49.0%	106.0%	
Ac-L-Arg-L-Arg-L-Gln-D-Met-L-Glu-L-Glu-NH2 [PEP-23]	78.9%	52.8%	114.6%	even higher
